The target in test [1] is TXK (human) (UniProt P42681).
Test [2] deals with PAK2 (human) (UniProt Q13177).
The target of test [3] is PRKAA1 (human) (UniProt Q13131).
The target of test [4] is RPS6KA4 KD1 (human) (UniProt O75676).
Test [5] concerns the target LTK (human) (UniProt P29376).
Test [6] deals with PTK2 (human) (UniProt Q05397).
Test [7] has as its target TYK2 JH1 catalytic (human) (UniProt P29597).
Test [8] addresses PTK2B (human) (UniProt Q14289).
For test [9], the target named is RPS6KA5 KD1 (human) (UniProt O75582).
RPS6KA5 KD1 (human), sequence (O75582 whole entry, looked up): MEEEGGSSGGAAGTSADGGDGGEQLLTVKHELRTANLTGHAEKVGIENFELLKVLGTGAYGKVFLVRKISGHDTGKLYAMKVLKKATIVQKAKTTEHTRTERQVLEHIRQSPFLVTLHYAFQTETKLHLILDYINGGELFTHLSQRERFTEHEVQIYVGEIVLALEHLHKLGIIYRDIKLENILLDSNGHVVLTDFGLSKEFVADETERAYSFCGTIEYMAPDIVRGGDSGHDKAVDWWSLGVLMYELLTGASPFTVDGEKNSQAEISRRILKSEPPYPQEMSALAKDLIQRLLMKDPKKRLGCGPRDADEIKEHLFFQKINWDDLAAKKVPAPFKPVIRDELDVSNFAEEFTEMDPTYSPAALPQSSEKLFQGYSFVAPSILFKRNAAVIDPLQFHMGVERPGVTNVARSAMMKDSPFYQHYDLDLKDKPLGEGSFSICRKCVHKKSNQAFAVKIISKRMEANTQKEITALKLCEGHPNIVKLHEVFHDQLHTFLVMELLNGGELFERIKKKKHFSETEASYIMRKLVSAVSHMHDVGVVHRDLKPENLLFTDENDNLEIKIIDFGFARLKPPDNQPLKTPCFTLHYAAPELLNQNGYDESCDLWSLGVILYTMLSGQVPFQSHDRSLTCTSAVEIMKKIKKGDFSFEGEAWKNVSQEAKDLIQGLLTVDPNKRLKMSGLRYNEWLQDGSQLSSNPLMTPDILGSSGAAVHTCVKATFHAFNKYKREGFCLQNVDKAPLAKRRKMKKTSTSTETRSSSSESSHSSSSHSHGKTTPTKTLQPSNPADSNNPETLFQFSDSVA
The target of test [10] is ROS1 (human) (UniProt P08922).
Test [11] deals with BRSK2 (human) (UniProt Q8IWQ3).
BRSK2 (human), sequence (Q8IWQ3 whole entry, looked up): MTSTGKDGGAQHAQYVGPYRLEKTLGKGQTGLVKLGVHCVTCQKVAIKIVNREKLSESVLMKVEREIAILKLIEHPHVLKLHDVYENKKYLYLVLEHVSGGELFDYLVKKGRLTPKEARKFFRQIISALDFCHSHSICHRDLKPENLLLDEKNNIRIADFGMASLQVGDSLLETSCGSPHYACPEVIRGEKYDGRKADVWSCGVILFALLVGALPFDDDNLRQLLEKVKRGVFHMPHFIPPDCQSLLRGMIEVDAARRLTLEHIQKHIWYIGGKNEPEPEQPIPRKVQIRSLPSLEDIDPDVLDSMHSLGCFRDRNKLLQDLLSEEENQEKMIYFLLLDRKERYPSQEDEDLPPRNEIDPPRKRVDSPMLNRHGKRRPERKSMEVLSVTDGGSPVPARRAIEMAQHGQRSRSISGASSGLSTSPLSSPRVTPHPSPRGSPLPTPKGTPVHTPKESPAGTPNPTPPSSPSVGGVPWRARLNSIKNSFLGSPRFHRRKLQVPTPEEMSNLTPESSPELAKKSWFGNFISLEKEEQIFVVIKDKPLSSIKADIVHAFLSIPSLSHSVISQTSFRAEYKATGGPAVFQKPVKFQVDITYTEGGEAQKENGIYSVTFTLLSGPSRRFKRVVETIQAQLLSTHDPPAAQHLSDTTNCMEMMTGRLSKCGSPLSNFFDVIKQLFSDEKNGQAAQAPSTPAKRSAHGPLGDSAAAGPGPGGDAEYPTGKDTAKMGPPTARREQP

PTK2 (human), sequence (Q05397 whole entry, looked up): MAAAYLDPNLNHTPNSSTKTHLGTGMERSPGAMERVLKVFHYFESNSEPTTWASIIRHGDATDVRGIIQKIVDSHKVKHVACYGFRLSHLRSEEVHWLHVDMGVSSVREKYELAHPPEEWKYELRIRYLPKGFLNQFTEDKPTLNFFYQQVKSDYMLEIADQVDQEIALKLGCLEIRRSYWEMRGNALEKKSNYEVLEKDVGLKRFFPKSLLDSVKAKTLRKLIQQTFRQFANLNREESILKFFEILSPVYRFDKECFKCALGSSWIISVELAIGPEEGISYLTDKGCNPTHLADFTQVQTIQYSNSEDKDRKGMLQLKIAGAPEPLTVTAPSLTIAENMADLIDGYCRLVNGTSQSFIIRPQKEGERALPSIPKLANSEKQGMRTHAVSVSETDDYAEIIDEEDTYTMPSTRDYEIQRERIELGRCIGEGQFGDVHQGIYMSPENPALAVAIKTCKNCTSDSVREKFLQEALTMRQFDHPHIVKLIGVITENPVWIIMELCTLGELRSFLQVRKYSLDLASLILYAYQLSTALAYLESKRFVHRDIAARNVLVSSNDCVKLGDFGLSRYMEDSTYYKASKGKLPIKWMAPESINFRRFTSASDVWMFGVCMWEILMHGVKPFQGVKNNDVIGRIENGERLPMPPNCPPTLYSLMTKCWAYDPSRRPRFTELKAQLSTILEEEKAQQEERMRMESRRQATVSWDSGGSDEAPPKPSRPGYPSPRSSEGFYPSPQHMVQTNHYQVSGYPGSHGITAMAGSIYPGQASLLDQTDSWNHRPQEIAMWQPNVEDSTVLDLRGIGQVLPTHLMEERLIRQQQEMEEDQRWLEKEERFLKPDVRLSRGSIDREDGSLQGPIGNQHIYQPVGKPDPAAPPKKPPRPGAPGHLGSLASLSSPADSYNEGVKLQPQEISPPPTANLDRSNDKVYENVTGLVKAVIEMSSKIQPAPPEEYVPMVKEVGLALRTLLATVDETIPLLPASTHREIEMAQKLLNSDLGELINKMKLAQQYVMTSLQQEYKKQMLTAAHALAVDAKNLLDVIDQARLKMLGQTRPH
PTK2B (human), sequence (Q14289 whole entry, looked up): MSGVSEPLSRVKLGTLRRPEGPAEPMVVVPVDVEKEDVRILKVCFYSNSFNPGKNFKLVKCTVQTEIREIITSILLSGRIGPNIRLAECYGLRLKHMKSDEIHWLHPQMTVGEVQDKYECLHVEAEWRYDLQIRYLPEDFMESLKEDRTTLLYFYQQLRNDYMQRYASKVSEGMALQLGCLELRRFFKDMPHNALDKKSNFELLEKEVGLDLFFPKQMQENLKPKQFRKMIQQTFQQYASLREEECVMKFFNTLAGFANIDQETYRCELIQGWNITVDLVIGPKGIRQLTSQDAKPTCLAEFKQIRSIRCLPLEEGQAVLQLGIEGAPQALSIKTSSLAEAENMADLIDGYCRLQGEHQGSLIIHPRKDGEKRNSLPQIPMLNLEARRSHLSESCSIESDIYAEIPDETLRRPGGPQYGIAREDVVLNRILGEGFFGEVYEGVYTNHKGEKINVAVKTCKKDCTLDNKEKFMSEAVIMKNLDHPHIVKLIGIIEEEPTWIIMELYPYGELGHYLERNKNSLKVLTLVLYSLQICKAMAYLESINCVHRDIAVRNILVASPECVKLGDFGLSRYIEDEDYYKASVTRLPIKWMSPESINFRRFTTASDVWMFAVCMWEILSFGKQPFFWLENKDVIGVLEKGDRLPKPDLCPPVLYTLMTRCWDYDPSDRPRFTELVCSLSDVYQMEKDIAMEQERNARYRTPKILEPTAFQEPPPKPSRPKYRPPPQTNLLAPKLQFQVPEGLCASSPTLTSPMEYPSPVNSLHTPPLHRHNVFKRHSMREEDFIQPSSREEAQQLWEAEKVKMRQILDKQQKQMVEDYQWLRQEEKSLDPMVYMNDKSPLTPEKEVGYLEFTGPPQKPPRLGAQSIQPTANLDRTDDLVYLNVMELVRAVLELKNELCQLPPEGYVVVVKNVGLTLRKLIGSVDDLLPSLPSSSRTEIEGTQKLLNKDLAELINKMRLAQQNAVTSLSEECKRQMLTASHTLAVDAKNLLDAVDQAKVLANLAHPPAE
TXK (human), sequence (P42681 whole entry, looked up): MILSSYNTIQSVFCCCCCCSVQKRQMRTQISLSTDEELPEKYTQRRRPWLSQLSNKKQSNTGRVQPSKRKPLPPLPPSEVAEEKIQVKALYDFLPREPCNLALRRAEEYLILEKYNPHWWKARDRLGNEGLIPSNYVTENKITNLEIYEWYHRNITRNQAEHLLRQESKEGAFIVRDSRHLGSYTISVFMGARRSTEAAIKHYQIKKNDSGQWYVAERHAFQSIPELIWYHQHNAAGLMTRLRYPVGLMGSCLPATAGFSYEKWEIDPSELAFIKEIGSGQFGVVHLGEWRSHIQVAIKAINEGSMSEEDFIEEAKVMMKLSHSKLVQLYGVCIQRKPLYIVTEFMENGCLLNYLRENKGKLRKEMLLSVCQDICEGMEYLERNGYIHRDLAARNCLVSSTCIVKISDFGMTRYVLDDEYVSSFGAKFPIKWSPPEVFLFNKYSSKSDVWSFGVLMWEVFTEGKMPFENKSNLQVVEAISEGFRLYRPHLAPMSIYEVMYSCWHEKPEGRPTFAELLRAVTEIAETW
PRKAA1 (human), sequence (Q13131 whole entry, looked up): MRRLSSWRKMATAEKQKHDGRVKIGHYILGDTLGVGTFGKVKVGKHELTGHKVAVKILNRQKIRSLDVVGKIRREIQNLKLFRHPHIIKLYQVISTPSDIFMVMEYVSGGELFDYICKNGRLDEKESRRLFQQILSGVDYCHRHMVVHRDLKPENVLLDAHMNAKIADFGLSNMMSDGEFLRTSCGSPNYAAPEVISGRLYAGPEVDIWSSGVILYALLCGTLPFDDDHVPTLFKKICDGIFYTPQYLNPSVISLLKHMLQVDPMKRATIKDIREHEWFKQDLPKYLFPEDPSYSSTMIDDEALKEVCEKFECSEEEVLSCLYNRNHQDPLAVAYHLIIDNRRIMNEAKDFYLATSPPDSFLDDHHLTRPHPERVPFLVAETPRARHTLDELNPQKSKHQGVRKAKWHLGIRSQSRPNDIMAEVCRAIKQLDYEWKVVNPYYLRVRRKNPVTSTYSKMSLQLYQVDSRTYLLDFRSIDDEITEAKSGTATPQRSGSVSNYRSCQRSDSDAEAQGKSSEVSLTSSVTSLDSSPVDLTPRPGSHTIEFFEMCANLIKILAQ

One may read the Kd as the constant that tells how readily two partners part at equilibrium. Low values mean higher affinity, high ones lower affinity. As for `Cc1ccc(C(=O)Nc2cccc(C(C)(C)C)c2)cc1-c1ccc(C(=O)NCC2CC2)cc1`, the Kd in [1] came to 80 nM.
Consider `CCS(=O)(=O)Nc1ccc2c(c1)[C@H](/C(=N/c1ccc(CN3CCCCC3)cc1)c1ccccc1)C(=O)N2`, for which the dissociation constant Kd turned out to be 14000 nM in test [2]; 19 nM in [3]; 94 nM in test [4]; 52 nM in test [5]; 33 nM in test [6]; 75 nM in [7]. In addition, the Kd turned out to be 10 nM in [8], 31 nM in test [9], 77 nM in [10] and 92 nM in test [11].

The values above are taken from the kinase profiling compilation of Christmann-Franck et al. (2016).
